Reference: ChEMBL document CHEMBL1201862, “PubChem BioAssay data set” (2004)
Structures can show the parent of a compound that is named as a salt. The source made the active and inactive calls.

What was measured:
[1] = biological target: Glutathione-S-transferase (Schistosoma japonicum, UniProt Q26513); assay: biotin-GST/anti-GST TR-FRET signal inhibitors, dose response, artefact control for Vif-APOBEC3G degradation inhibitor project, biochemical (AID 1117362); type: functional
[2] = biological target: Induced myeloid leukemia cell differentiation protein Mcl-1 (Homo sapiens, UniProt Q07820); type: functional
Fibrinogen beta chain [3] = biological target: T1, Fibrinogen beta chain (Homo sapiens, UniProt P02675); assay: Fluorescence polarization-based biochemical high throughput dose response assay to identify inhibitors that disrupt the binding of a cyclic peptide (Tn7) to the fibrin proteolytic product D-Dimer and fragment E complex [DD(E )].
Fibrinogen beta chain [4] = biological target: T1, Fibrinogen beta chain; assay: Fluorescence polarization-based biochemical high throughput dose response assay to identify inhibitors that disrupt the binding of a cyclic peptide (Tn6) to the fibrin proteolytic product D-Dimer and fragment E complex [DD(E )].
Protein Tat = Protein Tat (Human immunodeficiency virus type 1 group M subtype B (isolate HXB2)(HIV-1), UniProt P04608); type: functional;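 note: tat binding to TAR RNA read out by fluorescence polarization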
[5] = THP-1 cell cytotoxicity, dose response, cytotoxicity control for Vif-APOBEC3G degradation inhibitor project, THP-1 cells (AID 1117359); type: functional; conditions: Human immunodeficiency virus 1, THP-1
Protein RecA = biological target: T2, Protein RecA (Mycobacterium tuberculosis, UniProt P9WHJ3); assay: Fluorescence Cell-Free Homogeneous Dose Retest to Identify Inhibitors of RecA-Intein Splicing Activity. [Related pubchem assays (depositor defined):AID2097, AID2223, AID489010, AID492950]; type: functional
T2 sequence (P9WHJ3 whole entry): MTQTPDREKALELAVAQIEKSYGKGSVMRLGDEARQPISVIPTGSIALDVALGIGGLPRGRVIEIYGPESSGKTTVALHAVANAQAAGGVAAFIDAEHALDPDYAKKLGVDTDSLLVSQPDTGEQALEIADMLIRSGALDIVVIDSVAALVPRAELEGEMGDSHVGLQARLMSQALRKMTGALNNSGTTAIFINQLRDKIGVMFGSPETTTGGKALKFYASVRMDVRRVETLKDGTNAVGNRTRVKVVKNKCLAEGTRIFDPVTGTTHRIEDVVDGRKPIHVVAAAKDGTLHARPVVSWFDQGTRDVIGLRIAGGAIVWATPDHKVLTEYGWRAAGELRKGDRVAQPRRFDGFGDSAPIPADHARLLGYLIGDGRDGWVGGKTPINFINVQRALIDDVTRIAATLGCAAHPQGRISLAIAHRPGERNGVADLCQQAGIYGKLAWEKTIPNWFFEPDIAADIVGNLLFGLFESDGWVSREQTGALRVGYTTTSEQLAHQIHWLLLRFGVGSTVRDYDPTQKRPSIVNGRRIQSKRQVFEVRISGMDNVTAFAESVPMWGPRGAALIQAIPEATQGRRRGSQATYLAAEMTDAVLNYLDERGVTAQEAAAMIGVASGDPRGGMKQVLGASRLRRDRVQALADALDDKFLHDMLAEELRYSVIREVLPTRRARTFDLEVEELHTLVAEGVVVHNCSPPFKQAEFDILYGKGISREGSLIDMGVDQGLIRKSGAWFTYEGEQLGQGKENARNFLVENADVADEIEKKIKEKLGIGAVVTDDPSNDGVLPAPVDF

[6] = biological target: T3, Replicative DNA helicase DnaB (Mycobacterium tuberculosis, UniProt P9WMR3); assay: DnaB intein splicing inhibitors, dose response, biochemical, cell-free fluorescence (AID 449749); type: functional
T3 sequence (P9WMR3 whole entry): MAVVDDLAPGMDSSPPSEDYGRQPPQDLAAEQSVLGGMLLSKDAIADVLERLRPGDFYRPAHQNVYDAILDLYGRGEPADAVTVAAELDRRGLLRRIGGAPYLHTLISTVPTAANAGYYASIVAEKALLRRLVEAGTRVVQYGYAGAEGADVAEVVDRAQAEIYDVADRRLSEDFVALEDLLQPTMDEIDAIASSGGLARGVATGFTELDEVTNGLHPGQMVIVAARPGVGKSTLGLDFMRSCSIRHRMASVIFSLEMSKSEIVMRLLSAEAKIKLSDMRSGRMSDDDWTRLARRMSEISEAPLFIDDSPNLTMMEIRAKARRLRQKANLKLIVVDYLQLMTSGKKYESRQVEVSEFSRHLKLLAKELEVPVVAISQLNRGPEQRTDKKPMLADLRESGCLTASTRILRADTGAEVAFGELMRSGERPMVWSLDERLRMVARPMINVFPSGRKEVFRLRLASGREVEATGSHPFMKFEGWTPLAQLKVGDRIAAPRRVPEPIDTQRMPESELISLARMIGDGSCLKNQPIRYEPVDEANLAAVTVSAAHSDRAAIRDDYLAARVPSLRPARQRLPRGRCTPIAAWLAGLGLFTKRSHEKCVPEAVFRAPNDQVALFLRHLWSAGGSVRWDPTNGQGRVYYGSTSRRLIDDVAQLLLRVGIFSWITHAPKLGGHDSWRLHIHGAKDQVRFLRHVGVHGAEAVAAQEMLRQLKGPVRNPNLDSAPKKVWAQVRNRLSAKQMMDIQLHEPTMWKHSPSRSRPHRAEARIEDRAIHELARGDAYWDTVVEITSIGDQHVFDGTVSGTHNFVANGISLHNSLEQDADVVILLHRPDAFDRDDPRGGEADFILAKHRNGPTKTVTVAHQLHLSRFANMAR

[7] = cytotoxicity toward DRD oncogenic fibroblasts, dose response, cell-based, non-viral oncogenic, luminescence (AID 1934); type: functional; conditions: Homo sapiens
BJ [8] = assay: cytotoxicity toward BJ-TERT fibroblasts, dose response, cell-based, RAS-independent, luminescence (AID 1933); type: functional; conditions: Homo sapiens
[9] = A2780 ovarian cancer cell cytotoxicity, dose response, cytotoxicity control, plate reader, dry powder samples (AID 743046); type: functional, cell-based
[10] = cytotoxicity dependent on PAX8, dose response, cell-based, plate reader, dry powder (AID 743049); type: functional
BJ [11] = assay: cytotoxicity toward BJ-TERT-LT-ST fibroblasts, dose response, cell-based, RAS-independent, luminescence (AID 1935); type: functional; conditions: Homo sapiens;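 note: BJ fibroblasts immortalized with TERT plus LT and ST oncogenes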
[12] = cytotoxicity in OV-90 ovarian cancer cells, dose response, PAX8 inhibitor project, cell-based, plate reader, dry powder, SA8 (AID 743149); type: functional
[13] = NIH:OVCAR-3 ovarian cancer cell cytotoxicity, dose response, PAX8 inhibitor project, plate reader, dry powder samples (AID 743044); type: functional, cell-based
BJ [14] = assay: cells; type: functional, cell-based; conditions: Homo sapiens
[15] = cytotoxicity in OVCAR4 cells, dose response, cytotoxicity control for PAX8 inhibitor project, cell-based, plate reader, dry powder, SA11 (AID 743150); type: functional; conditions: OVCAR-4
[16] = IGROV1 ovarian cancer cell cytotoxicity, dose response, PAX8 inhibitor project, plate reader, dry powder samples (AID 743043); type: functional, cell-based; conditions: IGROV-1
[17] = IOSE-T80 ovarian epithelial cell cytotoxicity, dose response, cytotoxicity control for PAX8 inhibitor project, plate reader, dry powder samples (AID 743045); type: functional, cell-based
[18] = PAX2 cell-based inhibition, dose response, selectivity assay for PAX8 inhibitor project, plate reader, dry powder samples (AID 743048); type: functional;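 note: HEK293 cells carrying a WT1 promoter luciferase reporter driven by expressed Pax2; potency is for inhibition of Pax2 driven reporter signal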
[19] = PAX5 activity inhibitors, dose response, selectivity assay for PAX8 inhibitor project, cell-based, plate reader, dry powder samples (AID 743047); type: functional;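 note: HEK293 cells carrying a Pax5 driven CD19 promoter luciferase reporter; potency of inhibitors that lower reporter luminescence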
[20] = cytotoxicity in HEK-293T cells, dose response, cytotoxicity control for TCR NF-kB inhibitor project, luminescence, T-cell screen hits (AID 489026); type: functional, cell-based;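 note: cells exposed to compound about 14 hours before the viability readout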
Paired box protein Pax-8 = Paired box protein Pax-8 (Homo sapiens, UniProt Q06710); assay: inhibitors of PAX8-driven TPO luciferase reporter, dose response, RMG-I cells, cherry-pick (AID 687027); type: functional, cell-based;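 note: luciferase reporter driven by Pax8 target thyroperoxidase promoter measured by SteadyGlo luminescence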
[21] = cytotoxicity in COV434 cells, dose response, cytotoxicity control for PAX8 inhibitor project, cell-based, plate reader, dry powder, SA7 (AID 743145); type: functional
[22] = HeLa 4N DNA content increase, dose response, cell-based, IC50 (AID 1117351); type: functional
[23] = cytotoxicity toward HCT116 cells – cell-based, CellTiter-Glo luminescence, IC50, dose response (AID 1117332); type: functional; conditions: HCT-116
[24] = RKO cell viability reduction, dose response, CellTiter-Glo luminescence (AID 1117322); type: functional
[25] = Concentration-dependent survival of SW480 colon cancer line, luminescence detection with CellTiter-Glo, half-maximal inhibitory concentration (AID 1117338); type: functional
[26] = HeLa 2N DNA content increase, dose response, cell-based, IC50 (AID 1117349); type: functional
[27] = SNU-C1 cell viability reduction, dose response, CellTiter-Glo luminescence (AID 1117323); type: functional, cell-based
[28] = HCT116 cell viability decrease, GSK3B pretreatment – CellTiter-Glo, IC50, dose response (AID 1117339); type: functional; conditions: HCT-116
[29] = cytotoxicity toward HT-29 cells – cell-based, CellTiter-Glo luminescence, IC50, dose response (AID 1117330); type: functional
[30] = cytotoxicity toward Colo320 cells – cell-based, CellTiter-Glo luminescence, IC50, dose response (AID 1117334); type: functional; conditions: COLO 320
[31] = CellTiter-Glo luminescent dose response of DLD-1 viability loss (AID 1117352); type: functional
[32] = M. tuberculosis growth inhibition, HTS (AID 449762); type: functional
[33] = Dose-response inhibition of insulin secretion in a rat insulinoma line at 5 mM glucose (AID 1117331); type: functional, cell-based; conditions: INS-1E
cells = type: functional, cell-based; conditions: INS-1E

T1 sequence (P02675 whole entry, the tested form may be a part): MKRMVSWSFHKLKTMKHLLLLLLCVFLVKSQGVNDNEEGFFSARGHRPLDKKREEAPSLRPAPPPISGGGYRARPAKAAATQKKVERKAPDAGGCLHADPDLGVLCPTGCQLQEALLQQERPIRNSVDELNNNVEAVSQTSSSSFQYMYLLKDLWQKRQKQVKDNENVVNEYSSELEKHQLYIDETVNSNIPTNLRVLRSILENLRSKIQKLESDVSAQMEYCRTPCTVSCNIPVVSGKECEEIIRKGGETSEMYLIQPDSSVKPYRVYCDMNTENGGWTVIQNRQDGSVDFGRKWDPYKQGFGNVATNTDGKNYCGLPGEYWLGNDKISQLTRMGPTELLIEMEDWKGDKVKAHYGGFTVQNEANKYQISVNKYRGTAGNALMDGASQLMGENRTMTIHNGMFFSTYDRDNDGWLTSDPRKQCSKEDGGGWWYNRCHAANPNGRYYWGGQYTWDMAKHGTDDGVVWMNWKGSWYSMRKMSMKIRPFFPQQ
Sequence of Induced myeloid leukemia cell differentiation protein Mcl-1 (Q07820 whole entry, the tested form may be a part): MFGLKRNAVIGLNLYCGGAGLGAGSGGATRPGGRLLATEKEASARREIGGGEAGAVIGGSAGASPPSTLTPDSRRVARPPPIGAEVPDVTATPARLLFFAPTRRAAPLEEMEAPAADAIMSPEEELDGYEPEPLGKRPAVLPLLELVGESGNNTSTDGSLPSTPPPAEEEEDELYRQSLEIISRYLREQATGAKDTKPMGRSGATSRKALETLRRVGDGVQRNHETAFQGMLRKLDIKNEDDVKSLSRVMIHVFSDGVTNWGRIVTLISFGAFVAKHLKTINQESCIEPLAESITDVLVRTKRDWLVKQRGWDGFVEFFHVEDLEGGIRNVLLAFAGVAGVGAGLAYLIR
Sequence of Protein Tat (P04608 whole entry): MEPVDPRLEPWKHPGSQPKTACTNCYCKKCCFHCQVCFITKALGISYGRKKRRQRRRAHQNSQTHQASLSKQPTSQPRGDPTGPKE
Sequence of Paired box protein Pax-8 (Q06710 whole entry): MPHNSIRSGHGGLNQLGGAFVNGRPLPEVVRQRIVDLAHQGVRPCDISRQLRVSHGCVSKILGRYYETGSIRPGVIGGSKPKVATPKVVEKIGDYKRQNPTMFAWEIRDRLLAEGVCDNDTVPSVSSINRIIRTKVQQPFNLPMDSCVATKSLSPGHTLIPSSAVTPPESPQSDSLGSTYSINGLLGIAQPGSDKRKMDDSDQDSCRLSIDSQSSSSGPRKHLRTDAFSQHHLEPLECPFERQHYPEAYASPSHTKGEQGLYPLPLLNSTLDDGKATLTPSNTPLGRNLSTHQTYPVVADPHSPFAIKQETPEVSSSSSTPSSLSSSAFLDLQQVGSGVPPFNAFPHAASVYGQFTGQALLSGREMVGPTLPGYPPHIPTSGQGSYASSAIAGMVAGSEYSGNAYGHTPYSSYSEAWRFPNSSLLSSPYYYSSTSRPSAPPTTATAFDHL
Sequence of Glutathione-S-transferase (Q26513 whole entry): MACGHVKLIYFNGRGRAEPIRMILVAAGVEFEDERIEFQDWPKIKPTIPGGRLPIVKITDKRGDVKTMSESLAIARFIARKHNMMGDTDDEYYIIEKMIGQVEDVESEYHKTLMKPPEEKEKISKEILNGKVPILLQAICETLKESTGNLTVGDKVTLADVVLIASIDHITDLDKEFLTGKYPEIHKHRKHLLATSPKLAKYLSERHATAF

For COc1ccc(O)c(N)c1, the IC50 [1] was > 100000 nM (active) and the IC50 [2] was 1530 nM (active).

In the case of Nc1c(SCCC(=O)O)ccc2c1C(=O)c1ccccc1C2=O, the IC50 (Fibrinogen beta chain [3]) is reported as > 83300 nM (inactive) and the IC50 (Fibrinogen beta chain [4]) is reported as 11700 nM (inactive).

For CC1=CC(C)(C)N2C(=O)/C(=N/c3ccc(O)cc3)c3cccc1c32, the IC50 (Protein Tat) was > 100000 nM (active), the CC50 [5] was 9380 nM (active) and the EC50 (Protein RecA) was > 380000 nM (inactive). The AC50 [6] was > 380000 nM (inactive).

With CCOCCCNC(=O)c1ccc2c(c1)N=C(CC)c1cc(Br)ccc1S2 the EC50 [7] was 358 nM (active), the EC50 (BJ [8]) was 342 nM (active) and the AC50 [9] was 1350 nM (active). For the same molecule, the AC50 [10] was 386 nM (active), the EC50 (BJ [11]) was 455 nM (active) and the AC50 [12] was 497 nM (active). The AC50 [13] was 300 nM (active), the EC50 (BJ [14]) was 828 nM (inconclusive) and the AC50 [15] was 1160 nM (active). For the same molecule, the AC50 [16] was 4780 nM (active), the AC50 [17] was 403 nM (active) and the AC50 [18] was 15300 nM (active). The AC50 [19] was 41800 nM (active), the IC50 [20] was > 80000 nM (inactive) and the AC50 (Paired box protein Pax-8) was 1220 nM (active). For the same molecule, the AC50 [21] was 1070 nM (active).

With Cc1nc(N)nc(N)c1-c1ccc(Cl)c(Cl)c1 [METOPRINE] the IC50 [22] was > 10000 nM (inactive), the IC50 [23] was 413 nM (active) and the IC50 [24] was 117 nM (active). For the same molecule, the IC50 [25] was 512 nM (active), the IC50 [26] was > 10000 nM (inactive) and the IC50 [27] was 2160 nM (active). For the same molecule, the IC50 [28] was 58.9 nM (active), the IC50 [29] was 932 nM (active) and the IC50 [30] was 2030 nM (active). The IC50 [31] was 634 nM (active).

With CC(C)(C)c1nc2sc3c(c2c(=O)o1)CCCC3 the IC50 [32] was > 100000 nM (active).

In the case of NC[C@H]1CC[C@H](C(=O)Oc2ccc(CCC(=O)O)cc2)CC1 [CETRAXATE HYDROCHLORIDE], the IC50 [33] is reported as > 33300 nM (inactive) and the IC50 (cells) is reported as > 33300 nM (inactive).
